pIC50: −log10 of the molar value. Marks after values point to notes of the source that are not given here. Where a SMILES comes first, the peptide text is derived from it. Bridges are numbered along the chain shown (N, C = ends). [ ]: non-standard residue; d: D form.
Columns and labels:
[1] = system: DENV1 (NIBSC code West Pac 74); test: Plaque reduction assay in Vero cells, DENV1; format: cell-based, Dengue virus; conditions: m.o.i. 0.001, read-out: Antiviral activity IC50 vs DENV1
Procedure: (§1) The cells were grown in 24 well plates until the monolayer reached approximately 90% confluence, after which they were washed twice with MEM medium without Fetal Bovine Serum (FBS). Then, peptide dilutions were added and the cell-peptide mixtures were incubated typically for 1 hour at 37° C., followed by the addition of a DENV serotype 2 preparation (NIBSC code S16803) at a multiplicity of infection (m.o.i.) of 0.001. The cells were then incubated for 1 hour at 37° C., and once the period of incubation with the viral inoculum concluded, were washed again to remove unbound virions and incubated for 5 days at 37° C. in high density medium (MEM supplemented with non-essential amino acids, 1% FBS, 1% carboxymethylcellulose) in order to let viral plaques form. Afterwards, the cells were stained with 0.1% Naphtol Blue Black in 0.15 M sodium acetate. Two replicates per experimental point were used in each assay, and three independent determinations were performed for each sample.
(§2) Next, it was decided to compare the antiviral activity of peptides PHB4 and HDIII3CL against all four DENV serotypes, with the objective of comparing their respective IC50 values. […]

[2] = system: DENV3 (NIBSC code CH53489); test: Plaque reduction assay in Vero cells, DENV3; format: cell-based, Dengue virus; conditions: m.o.i. 0.001, read-out: Antiviral activity IC50 vs DENV3
Procedure: as §1, §2

[3] = Light scattering aggregation kinetics; format: physicochemical
Procedure: Light scattering was used to monitor the aggregation of peptide PHB4. The measurements were performed on a Shimadzu™ RF-5301PC (Shimadzu, Japan) spectrofluorimeter, acquiring data with the software provided by the instrument manufacturer. The wavelengths of the incident light beam (excitation) and the detector (emission) were set to 320 nm, using excitation and emission apertures of 5 nm. The scattering of light due to the peptide was calculated by subtracting, from the intensity of the light dispersed by the peptide, the intensity of the light dispersed by a solution without peptide (blank). Variations on light scattering due to the dissolution of the peptide in PBS were studied by acquiring data in time course mode, with a measurement frequency of 1 or 2 per second. The solutions of PHB4 in PBS were prepared by mixing one part of a solution of the peptide in water with one part of a PBS 2X solution.

sLRP1-CIV = target: T1, sLRP1-CIV (Homo sapiens, UniProt Q07954); test: Biacore (SPR) binding to immobilized sLRP1-CIV; conditions: peptides at 20 μM
T1 construct: purchased R&D Systems, USA
Procedure: The interaction of the beta hairpin peptides with soluble fragments of the LRP1 receptor was studied by Surface Plasmon Resonance (SPR), using a Biacore X unit. In this technique, one of the interaction partners to be studied is immobilized on the surface of a chip, and the other interaction partner is dissolved in a solution that runs through the measurement cell on top of the interaction surface, under conditions of controlled flow. The association and dissociation of interacting partners is measured in resonance units (RU) and plotted, as a function of time, on charts known as ‘sensorgrams’. SPR, therefore, enables the experimenter to obtain detailed information about the interaction without having to label either interaction partner.
In this example, one channel of a CM5 chip (GE Healthcare, USA) was used to immobilize protein sLRP1-CIV on its surface at high density (see Table 6) and recombinant Human Serum Albumin (rHSA, Sigma-Aldrich, USA) was immobilized on the other channel.
Although it was decided to immobilize sLRP1-CIV at high density because these conditions make easier the detection of any potential interactions with compounds whose molecular weight is lower than that of average proteins (such as the peptides this experiment is intended to study), it must be stressed that in high-density surfaces, mass transfer limitations and the possibility of multivalent binding make difficult the accurate determination of kinetic constants. Therefore, and in order to characterize in greater detail the sLRP1-CIV binding surface, different RAP dilutions (0.6-20 μM) were loaded, and RU were registered under conditions of interaction equilibria (250 sec, see FIG. 13B). […] The data also indicate that immobilized sLRP1-CIV faithfully reproduces the previously reported characteristics of the LRP1-RAP interaction.
The binding of beta hairpin peptides to sLRP1-CIV was studied by loading 20 μM dilutions in running buffer of the different peptide variants onto the sLRP1-CIV chip characterized above. The high strength of the resulting signals is consistent with the binding of aggregated, rather than monomeric forms of the peptides. Therefore, the observed variations between different peptides may reflect either differences in the affinity of unitary peptide interactions or differences in aggregation numbers and/or geometries that lead to variations in the number of peptide units able to simultaneously engage immobilized sLRP1-CIV molecules in a multivalent manner. […] The difference between peptides HDIII3CL2 and HDIII3CL is that the former has an additional C-terminal lysine and has, therefore, a stronger cationic character, which may facilitate additional electrostatic interactions with the negatively charged LRP1 receptor.

DENV2 = test: In vivo protection assay, intracranial challenge, DENV2; parameters: species or system Balb/c mice; conditions: 30 μg peptide inoculated intracranially with 10 median lethal doses, 21 days
Procedure: (§3) An experiment was set up to evaluate the in vivo antiviral activity of peptide PHB4 and compare it to that of peptide HDIII3CL. For this purpose, groups of 12 adult Balb/c mice (20 g average body weight) were anesthetized by ether inhalation and inoculated intracranially with 20 μL of viral preparations containing 10 times the median lethal dose of this model and the peptide to be evaluated. The animals recovered quickly and already appeared alert five minutes after the treatment, and were monitored afterwards for 21 days. The data were evaluated using the Kaplan-Meier logarithmic rank test.

DENV4 = test: In vivo protection assay, intracranial challenge, DENV4; parameters: species or system Balb/c mice; conditions: 30 μg peptide inoculated intracranially with 10 median lethal doses, 21 days
Procedure: as §3

## CC[C@H](C)[C@@H]1NC(=O)[C@H](Cc2ccccc2)NC(=O)[C@H](Cc2c[nH]c3ccccc23)NC(=O)[C@H](CC(N)=O)NC(=O)[C@H](C(C)C)NC(=O)[C@H](CCCCN)NC(=O)[C@H](Cc2c[nH]c3ccccc23)NC(=O)[C@H](CCCCN)NC(=O)[C@H]2CCCN2C(=O)[C@H](CCCNC(=N)N)NC(=O)[C@H]([C@@H](C)O)NC(=O)[C@H](Cc2c[nH]c3ccccc23)NC(=O)[C@H](Cc2ccc(O)cc2)NC(=O)[C@H](C(C)C)NC(=O)[C@H](CCC(=O)O)NC(=O)[C@H]([C@@H](C)CC)NC(=O)[C@@H](N)CSSC[C@@H](C(=O)N[C@@H](CCCCN)C(=O)N[C@@H](CCCCN)C(=O)N[C@@H](CCCCN)C(N)=O)NC1=O [PHB4] (H-CIEVYWTR[dP]KWKVNWFICKKK-NH2; disulfide 1-18; N-terminus assumed)
[1]
  pIC50: 8.70
[2]
  pIC50: 8.30
[3]; 5 μM peptide in PBS
  Maximum of ratio of dispersed light relative to time zero: 11
[3]; 10 μM peptide in PBS
  Maximum of ratio of dispersed light relative to time zero: 7
[3]; dissolved into PBS
  Latency period before increase of dispersed light: < 2 min
sLRP1-CIV
  Binding to sLRP1-CIV by SPR, in words: strongest binding
DENV2
  Protection (%) DENV2: 100*** %
DENV4
  Protection (%) DENV4: 100*** %
